Experiments:
Assay in all cases: KINOMEscan binding assay
MTOR = biological target: T1, MTOR (Homo sapiens, UniProt P42345); details: 1 µM i-CDK9; read-out: % Retention on Solid Support
T1 construct: purchased DiscoveRx KINOMEscan
How it was run: (§1)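 We profiled i-CDK9 by active-site-directed competitive binding, testing 1 µM and 10 µM against over 400 kinases.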

DYRK2 = biological target: T2, DYRK2 (Homo sapiens, UniProt Q92630); details: read-out: % Retention on Solid Support
T2 construct: purchased DiscoveRx KINOMEscan
T2 sequence (Q92630 1-601): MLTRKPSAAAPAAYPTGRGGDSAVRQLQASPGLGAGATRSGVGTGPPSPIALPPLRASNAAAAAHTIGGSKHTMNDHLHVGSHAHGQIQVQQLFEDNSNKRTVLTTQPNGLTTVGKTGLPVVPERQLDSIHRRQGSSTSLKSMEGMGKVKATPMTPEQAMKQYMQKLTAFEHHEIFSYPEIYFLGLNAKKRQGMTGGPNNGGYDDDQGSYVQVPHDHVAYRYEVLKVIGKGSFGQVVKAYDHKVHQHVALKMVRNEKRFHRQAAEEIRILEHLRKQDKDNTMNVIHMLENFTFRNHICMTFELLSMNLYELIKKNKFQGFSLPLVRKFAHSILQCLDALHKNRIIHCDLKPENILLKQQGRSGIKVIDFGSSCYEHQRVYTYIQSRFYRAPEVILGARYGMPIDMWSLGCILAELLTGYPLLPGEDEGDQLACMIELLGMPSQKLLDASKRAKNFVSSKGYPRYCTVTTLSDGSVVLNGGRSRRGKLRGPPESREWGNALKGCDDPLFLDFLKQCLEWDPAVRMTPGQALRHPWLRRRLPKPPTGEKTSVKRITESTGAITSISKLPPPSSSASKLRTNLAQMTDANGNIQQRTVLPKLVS
How it was run: as §1

DYRK1B = biological target: T3, DYRK1B (Homo sapiens, UniProt Q9Y463); details: read-out: % Retention on Solid Support
T3 construct: purchased DiscoveRx KINOMEscan
How it was run: as §1

[1] = biological target: T4, ABL1(T315I)-phosphorylated (Homo sapiens, UniProt P00519, T315I); details: 1 µM i-CDK9; read-out: % Retention on Solid Support
T4 construct: purchased DiscoveRx KINOMEscan
How it was run: as §1

ERBB3 = biological target: T5, ERBB3 (Homo sapiens, UniProt P21860); details: read-out: % Retention on Solid Support
T5 construct: purchased DiscoveRx KINOMEscan
How it was run: as §1

KIT(V559D,T670I) = biological target: T6, KIT(V559D,T670I) (Homo sapiens, UniProt P10721, T670I/V559D); details: read-out: % Retention on Solid Support
T6 construct: purchased DiscoveRx KINOMEscan
How it was run: as §1

OSR1 = biological target: T7, OSR1 (Homo sapiens, UniProt O95747); details: read-out: % Retention on Solid Support
T7 construct: purchased DiscoveRx KINOMEscan
How it was run: as §1

GCN2(Kin.Dom.2,S808G) = biological target: T8, GCN2(Kin.Dom.2,S808G) (Homo sapiens, UniProt Q9P2K8, S808G); details: read-out: % Retention on Solid Support
T8 construct: GCN2(Kin.Dom.2,S808G); purchased DiscoveRx KINOMEscan
How it was run: as §1

MET = biological target: T9, MET (Homo sapiens, UniProt P08581)
T9 construct: purchased DiscoveRx KINOMEscan
How it was run: as §1

ACVRL1 = biological target: T10, ACVRL1 (Homo sapiens, UniProt P37023); details: read-out: % Retention on Solid Support
T10 construct: purchased DiscoveRx KINOMEscan
How it was run: as §1

CDK13 = biological target: T11, CDK13 (Homo sapiens, UniProt Q14004); details: 1 µM i-CDK9
T11 construct: purchased DiscoveRx
How it was run: as §1

CDC2L2 = biological target: T12, CDC2L2 (Homo sapiens, UniProt Q9UQ88); details: read-out: % Retention on Solid Support
T12 construct: purchased DiscoveRx KINOMEscan
How it was run: as §1

[2] = biological target: T13, JAK3(JH1domain-catalytic) (Homo sapiens, UniProt P52333); details: read-out: % Retention on Solid Support
T13 construct: JAK3(JH1domain-catalytic); purchased DiscoveRx KINOMEscan
How it was run: as §1

TXK = biological target: T14, TXK (Homo sapiens, UniProt P42681); details: read-out: % Retention on Solid Support
T14 construct: purchased DiscoveRx KINOMEscan
How it was run: as §1

ERK8 = biological target: T15, ERK8 (Homo sapiens, UniProt Q8TD08); details: read-out: % Retention on Solid Support
T15 construct: purchased DiscoveRx KINOMEscan
How it was run: as §1

HIPK1 = biological target: T16, HIPK1 (Homo sapiens, UniProt Q86Z02); details: read-out: % Retention on Solid Support
T16 construct: purchased DiscoveRx KINOMEscan
How it was run: as §1

[3] = biological target: T17, RSK2(Kin.Dom.1-N-terminal) (Homo sapiens, UniProt P51812); details: read-out: % Retention on Solid Support
T17 construct: RSK2(Kin.Dom.1-N-terminal); purchased DiscoveRx KINOMEscan
How it was run: as §1

IKK-alpha = biological target: T18, IKK-alpha (Homo sapiens, UniProt O15111); details: read-out: % Retention on Solid Support
T18 construct: purchased DiscoveRx KINOMEscan
How it was run: as §1

PAK6 = biological target: T19, PAK6 (Homo sapiens, UniProt Q9NQU5); details: read-out: % Retention on Solid Support
T19 construct: purchased DiscoveRx KINOMEscan
How it was run: as §1

KIT(V559D) = biological target: T20, KIT(V559D) (Homo sapiens, UniProt P10721, V559D); details: read-out: % Retention on Solid Support
T20 construct: purchased DiscoveRx KINOMEscan
How it was run: as §1

FAK = biological target: T21, FAK (Homo sapiens, UniProt Q05397); details: read-out: % Retention on Solid Support
T21 construct: purchased DiscoveRx KINOMEscan
How it was run: as §1

LCK = biological target: T22, LCK (Homo sapiens, UniProt P06239); details: read-out: % Retention on Solid Support
T22 construct: purchased DiscoveRx KINOMEscan
How it was run: as §1

T8 sequence (Q9P2K8 590-1001 S808G limits assumed): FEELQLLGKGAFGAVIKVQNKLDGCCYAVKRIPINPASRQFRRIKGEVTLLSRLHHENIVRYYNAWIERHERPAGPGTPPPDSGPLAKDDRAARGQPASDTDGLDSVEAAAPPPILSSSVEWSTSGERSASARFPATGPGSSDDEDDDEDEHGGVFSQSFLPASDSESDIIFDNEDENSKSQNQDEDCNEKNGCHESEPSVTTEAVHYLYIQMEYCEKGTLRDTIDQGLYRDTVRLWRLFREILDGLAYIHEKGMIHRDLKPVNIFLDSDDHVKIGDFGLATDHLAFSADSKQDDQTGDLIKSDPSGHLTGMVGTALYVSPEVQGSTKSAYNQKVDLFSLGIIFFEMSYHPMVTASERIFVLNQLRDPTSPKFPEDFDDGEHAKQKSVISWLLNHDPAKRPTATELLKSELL
T3 sequence (Q9Y463 whole entry): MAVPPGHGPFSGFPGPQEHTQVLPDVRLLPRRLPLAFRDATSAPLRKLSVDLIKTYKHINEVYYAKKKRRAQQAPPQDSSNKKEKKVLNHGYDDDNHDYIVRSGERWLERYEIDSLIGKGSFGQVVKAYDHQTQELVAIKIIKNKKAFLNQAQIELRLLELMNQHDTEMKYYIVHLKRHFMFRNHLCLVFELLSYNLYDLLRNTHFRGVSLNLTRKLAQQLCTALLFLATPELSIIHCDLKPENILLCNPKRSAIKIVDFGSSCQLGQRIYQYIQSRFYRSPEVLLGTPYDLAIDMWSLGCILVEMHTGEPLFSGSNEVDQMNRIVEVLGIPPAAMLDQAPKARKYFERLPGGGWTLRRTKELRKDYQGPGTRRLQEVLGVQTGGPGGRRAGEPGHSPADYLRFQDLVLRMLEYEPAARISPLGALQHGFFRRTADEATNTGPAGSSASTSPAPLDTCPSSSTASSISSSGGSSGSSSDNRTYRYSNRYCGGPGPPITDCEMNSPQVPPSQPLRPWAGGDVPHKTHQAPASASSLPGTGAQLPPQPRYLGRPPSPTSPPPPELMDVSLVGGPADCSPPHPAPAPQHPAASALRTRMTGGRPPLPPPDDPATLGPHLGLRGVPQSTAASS
T22 sequence (P06239 whole entry): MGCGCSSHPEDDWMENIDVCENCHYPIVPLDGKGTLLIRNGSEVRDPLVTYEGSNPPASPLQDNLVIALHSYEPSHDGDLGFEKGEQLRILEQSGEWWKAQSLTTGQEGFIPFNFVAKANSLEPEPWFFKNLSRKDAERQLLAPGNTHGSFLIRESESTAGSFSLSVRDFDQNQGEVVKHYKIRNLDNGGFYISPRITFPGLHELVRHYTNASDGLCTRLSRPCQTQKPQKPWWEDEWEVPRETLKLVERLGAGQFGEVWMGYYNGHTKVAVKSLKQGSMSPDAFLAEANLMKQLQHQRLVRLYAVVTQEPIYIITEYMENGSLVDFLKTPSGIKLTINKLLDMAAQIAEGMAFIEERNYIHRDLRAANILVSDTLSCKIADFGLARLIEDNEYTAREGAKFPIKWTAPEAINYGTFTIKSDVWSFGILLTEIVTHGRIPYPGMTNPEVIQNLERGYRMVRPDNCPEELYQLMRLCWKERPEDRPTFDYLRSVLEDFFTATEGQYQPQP
T19 sequence (Q9NQU5 whole entry): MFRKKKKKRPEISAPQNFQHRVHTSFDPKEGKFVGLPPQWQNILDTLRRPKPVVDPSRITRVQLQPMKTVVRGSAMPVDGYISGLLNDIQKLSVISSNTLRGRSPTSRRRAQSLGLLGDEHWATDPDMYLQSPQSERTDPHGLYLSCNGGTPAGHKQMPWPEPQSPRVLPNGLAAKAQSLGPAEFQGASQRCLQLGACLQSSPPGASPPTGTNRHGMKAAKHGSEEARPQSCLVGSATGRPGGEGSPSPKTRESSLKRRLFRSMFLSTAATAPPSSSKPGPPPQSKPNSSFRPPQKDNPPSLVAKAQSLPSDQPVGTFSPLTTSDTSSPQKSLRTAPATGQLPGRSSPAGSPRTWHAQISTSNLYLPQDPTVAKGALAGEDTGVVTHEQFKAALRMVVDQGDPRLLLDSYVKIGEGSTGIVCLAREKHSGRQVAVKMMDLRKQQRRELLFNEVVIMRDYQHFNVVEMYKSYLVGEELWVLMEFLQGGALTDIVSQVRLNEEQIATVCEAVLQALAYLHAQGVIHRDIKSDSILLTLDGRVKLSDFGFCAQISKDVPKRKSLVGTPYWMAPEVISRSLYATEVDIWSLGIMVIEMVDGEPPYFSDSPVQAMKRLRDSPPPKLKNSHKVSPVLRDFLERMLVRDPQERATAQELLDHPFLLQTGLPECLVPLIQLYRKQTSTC
T17 sequence (P51812 1-397 limits assumed): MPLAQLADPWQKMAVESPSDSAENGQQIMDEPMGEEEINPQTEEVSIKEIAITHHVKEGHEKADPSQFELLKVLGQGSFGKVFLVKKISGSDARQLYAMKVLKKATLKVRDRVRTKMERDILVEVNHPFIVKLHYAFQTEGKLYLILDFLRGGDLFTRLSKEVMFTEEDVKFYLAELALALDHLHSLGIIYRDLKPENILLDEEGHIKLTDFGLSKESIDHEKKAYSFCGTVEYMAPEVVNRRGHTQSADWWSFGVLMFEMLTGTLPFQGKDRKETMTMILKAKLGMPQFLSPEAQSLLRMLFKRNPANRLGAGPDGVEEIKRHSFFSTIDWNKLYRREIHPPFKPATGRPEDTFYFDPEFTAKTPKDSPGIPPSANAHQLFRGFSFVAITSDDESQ
T12 sequence (Q9UQ88 whole entry): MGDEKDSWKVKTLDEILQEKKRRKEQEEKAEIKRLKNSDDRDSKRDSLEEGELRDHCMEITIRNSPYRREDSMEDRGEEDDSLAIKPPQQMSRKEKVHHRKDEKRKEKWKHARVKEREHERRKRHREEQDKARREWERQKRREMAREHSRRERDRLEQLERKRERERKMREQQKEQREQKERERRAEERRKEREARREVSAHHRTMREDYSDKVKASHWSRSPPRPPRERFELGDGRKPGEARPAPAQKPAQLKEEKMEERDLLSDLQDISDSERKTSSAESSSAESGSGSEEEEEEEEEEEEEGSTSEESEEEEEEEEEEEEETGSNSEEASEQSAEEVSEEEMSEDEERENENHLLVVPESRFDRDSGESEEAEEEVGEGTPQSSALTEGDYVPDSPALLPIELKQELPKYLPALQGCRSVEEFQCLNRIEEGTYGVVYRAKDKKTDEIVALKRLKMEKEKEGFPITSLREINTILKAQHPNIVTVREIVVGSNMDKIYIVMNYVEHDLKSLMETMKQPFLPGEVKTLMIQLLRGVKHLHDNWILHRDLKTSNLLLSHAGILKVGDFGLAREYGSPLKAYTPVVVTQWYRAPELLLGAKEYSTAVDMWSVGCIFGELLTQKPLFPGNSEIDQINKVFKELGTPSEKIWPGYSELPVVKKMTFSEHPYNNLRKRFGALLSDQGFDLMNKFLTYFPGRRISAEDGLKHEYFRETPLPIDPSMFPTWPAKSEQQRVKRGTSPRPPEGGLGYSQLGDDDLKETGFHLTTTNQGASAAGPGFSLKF
T21 sequence (Q05397 whole entry): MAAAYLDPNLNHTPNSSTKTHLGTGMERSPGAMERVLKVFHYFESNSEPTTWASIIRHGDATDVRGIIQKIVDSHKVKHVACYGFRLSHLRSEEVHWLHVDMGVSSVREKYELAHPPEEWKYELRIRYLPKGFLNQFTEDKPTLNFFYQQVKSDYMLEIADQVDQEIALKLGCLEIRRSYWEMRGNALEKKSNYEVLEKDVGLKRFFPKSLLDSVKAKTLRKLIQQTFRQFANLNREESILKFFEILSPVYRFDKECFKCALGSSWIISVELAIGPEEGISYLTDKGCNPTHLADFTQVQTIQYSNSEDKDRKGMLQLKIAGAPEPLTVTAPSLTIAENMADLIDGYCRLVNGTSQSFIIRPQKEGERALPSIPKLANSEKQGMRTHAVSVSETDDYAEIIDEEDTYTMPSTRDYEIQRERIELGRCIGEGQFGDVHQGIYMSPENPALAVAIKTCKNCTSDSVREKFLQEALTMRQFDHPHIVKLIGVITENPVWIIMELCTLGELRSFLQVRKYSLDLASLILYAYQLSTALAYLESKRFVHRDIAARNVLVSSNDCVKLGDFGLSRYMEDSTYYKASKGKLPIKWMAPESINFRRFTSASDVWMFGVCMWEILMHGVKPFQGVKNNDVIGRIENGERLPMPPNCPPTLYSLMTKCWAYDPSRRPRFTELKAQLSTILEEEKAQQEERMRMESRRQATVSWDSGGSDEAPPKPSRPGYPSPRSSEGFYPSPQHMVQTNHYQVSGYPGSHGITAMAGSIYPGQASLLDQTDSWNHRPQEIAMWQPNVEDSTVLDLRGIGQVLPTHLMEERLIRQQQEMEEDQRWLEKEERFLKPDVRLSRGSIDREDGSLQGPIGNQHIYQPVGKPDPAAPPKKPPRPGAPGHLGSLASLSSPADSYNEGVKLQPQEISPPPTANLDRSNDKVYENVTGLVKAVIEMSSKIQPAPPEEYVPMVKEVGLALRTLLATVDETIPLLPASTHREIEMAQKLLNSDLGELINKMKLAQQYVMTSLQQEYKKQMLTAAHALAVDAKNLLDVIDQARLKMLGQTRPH
T14 sequence (P42681 whole entry): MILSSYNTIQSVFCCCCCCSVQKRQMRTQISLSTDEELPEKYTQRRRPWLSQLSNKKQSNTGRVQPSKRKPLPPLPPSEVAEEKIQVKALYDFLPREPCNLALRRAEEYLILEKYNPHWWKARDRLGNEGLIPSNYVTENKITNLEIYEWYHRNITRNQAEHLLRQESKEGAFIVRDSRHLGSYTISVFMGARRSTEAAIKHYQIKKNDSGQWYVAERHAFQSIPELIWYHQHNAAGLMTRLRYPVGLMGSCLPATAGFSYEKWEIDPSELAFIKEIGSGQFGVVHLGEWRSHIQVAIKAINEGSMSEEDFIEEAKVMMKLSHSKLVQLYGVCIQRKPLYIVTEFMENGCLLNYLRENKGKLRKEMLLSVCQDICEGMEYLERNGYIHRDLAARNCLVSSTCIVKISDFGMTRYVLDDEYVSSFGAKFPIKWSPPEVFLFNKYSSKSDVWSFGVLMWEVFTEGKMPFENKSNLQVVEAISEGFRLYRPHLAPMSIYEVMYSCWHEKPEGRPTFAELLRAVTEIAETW

SMILES: N[C@H]1CC[C@H](Nc2cc(-c3cccc(NCc4cccc(F)c4)n3)c(Cl)cn2)CC1 [i-CDK9, N2′-(trans-4-aminocyclohexyl)-5′-chloro-N6-(3-fluorobenzyl)-2,4′-bipyridine-2′,6-diamine]
- remaining binding at 1 µM (MTOR): 100%
- remaining binding at 1 µM (DYRK2; 1 µM i-CDK9): 7.1%
- remaining binding at 10 µM (DYRK2; 10 µM i-CDK9): 33%
- remaining binding at 1 µM (DYRK1B; 1 µM i-CDK9): 0.95%
- remaining binding at 10 µM (DYRK1B; 10 µM i-CDK9): 0.7%
- remaining binding at 1 µM [1]: 100%
- remaining binding at 1 µM (ERBB3; 1 µM i-CDK9): 100%
- remaining binding at 10 µM (ERBB3; 10 µM i-CDK9): 100%
- remaining binding at 1 µM (KIT(V559D,T670I); 1 µM i-CDK9): 95%
- remaining binding at 10 µM (KIT(V559D,T670I); 10 µM i-CDK9): 100%
- remaining binding at 1 µM (OSR1; 1 µM i-CDK9): 97%
- remaining binding at 10 µM (OSR1; 10 µM i-CDK9): 85%
- remaining binding at 1 µM (GCN2(Kin.Dom.2,S808G); 1 µM i-CDK9): 100%
- remaining binding at 10 µM (GCN2(Kin.Dom.2,S808G); 10 µM i-CDK9): 100%
- % Retention on Solid Support (MET; 1 µM i-CDK9): 94%
- % Retention on Solid Support (MET; 10 µM i-CDK9): 96%
- remaining binding at 1 µM (ACVRL1; 1 µM i-CDK9): 95%
- remaining binding at 10 µM (ACVRL1; 10 µM i-CDK9): 100%
- % binding to immobilized ligand (CDK13): 100%
- remaining binding at 1 µM (CDC2L2; 1 µM i-CDK9): 100%
- remaining binding at 10 µM (CDC2L2; 10 µM i-CDK9): 33%
- remaining binding at 1 µM ([2]; 1 µM i-CDK9): 100%
- remaining binding at 10 µM ([2]; 10 µM i-CDK9): 100%
- remaining binding at 1 µM (TXK; 1 µM i-CDK9): 100%
- remaining binding at 10 µM (TXK; 10 µM i-CDK9): 100%
- remaining binding at 1 µM (ERK8; 1 µM i-CDK9): 85%
- remaining binding at 10 µM (ERK8; 10 µM i-CDK9): 20%
- remaining binding at 1 µM (HIPK1; 1 µM i-CDK9): 44%
- remaining binding at 10 µM (HIPK1; 10 µM i-CDK9): 29%
- remaining binding at 1 µM ([3]; 1 µM i-CDK9): 86%
- remaining binding at 10 µM ([3]; 10 µM i-CDK9): 76%
- remaining binding at 1 µM (IKK-alpha; 1 µM i-CDK9): 85%
- remaining binding at 10 µM (IKK-alpha; 10 µM i-CDK9): 71%
- remaining binding at 1 µM (PAK6; 1 µM i-CDK9): 100%
- remaining binding at 10 µM (PAK6; 10 µM i-CDK9): 100%
- remaining binding at 1 µM (KIT(V559D); 1 µM i-CDK9): 88%
- remaining binding at 10 µM (KIT(V559D); 10 µM i-CDK9): 90%
- remaining binding at 1 µM (FAK; 1 µM i-CDK9): 88%
- remaining binding at 10 µM (FAK; 10 µM i-CDK9): 99%
- remaining binding at 1 µM (LCK; 1 µM i-CDK9): 100%
- remaining binding at 10 µM (LCK; 10 µM i-CDK9): 100%
